We go through ten compounds from US20160052898A1, “NOVEL COMPOUNDS” (BAYER PHARMA AKTIENGESELLSCHAFT, priority 2013, published 2016).

What is called IC50 is the midpoint of a concentration-inhibition curve.

Common to all, as to type: cell-based
Experiment [1] concerns constitutive active colorectal cancer cell (CRC) Wnt pathway. Nature of the experiment: HCT116 Super TopFlash cellular reporter assay (constitutive active Wnt pathway). Conditions: Homo sapiens, HCT-116, 36 h, HCT116 TOP reporter cells, luciferase expression, 36 hours incubation, 50 μM to 15 nM. The essentials: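 HCT116 cells (β-catenin ΔS45) stably carrying Super TopFlash, with a parallel FOP-control line, were plated 24 h ahead. They were exposed 36 h at 37 °C, 5% CO2 to compound from a 50 μM–15 nM, 3.16-fold pre-dilution series in CAFTY buffer (pH 7.4, 2 mM Ca2+, 0.01% BSA). Wnt signalling was read as luciferase luminescence.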

Experiment [2] concerns HCT116 FOP control reporter cell line. Nature of the experiment: HCT116 FOP control vector reporter assay (non-functional TCF elements). Conditions: Homo sapiens, HCT-116, 36 h, HCT116 FOP control reporter cells, luciferase expression, 36 hours incubation, 50 μM to 15 nM; read-out: HCT116 FOPFlash IC50. The essentials:
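Stable HCT116 line carrying the non-functional FOP luciferase construct, 10000 cells/well plated 24 hrs before. Compounds 50 μM to 15 nM (3.16-fold steps) in CAFTY buffer pH 7.4 with 2 mM Ca2+, 36 hours at 37° C; luciferase luminescence read.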

A further experiment concerns wildtype Wnt pathway. Nature of the experiment: HEK293 Super TopFlash cellular reporter assay, Wnt-3a stimulated (wildtype Wnt pathway). Conditions: Homo sapiens; HEK293 TOP reporter cells, EC50 concentration of recombinant Wnt-3a, 16 hours incubation; read-out: HEK TOP OncoFlash IC50. On the procedure: (§1) In order to determine the inhibitory activity of compounds for the WT Wnt signaling pathway, the Super TopFlash vector respectively FOP vector were cotransfected with pcDNA3 into HEK293 and stable transfected HEK293 cells were isolated by antibiotic selection. […] The recombinant human Wnt-3a was thereby used between 2500 and 5 ng/ml in two-fold dilution steps. […] Measurement of luciferase expression was done as described for the constitutive active Wnt assay.
In order to discover and characterize small molecules which inhibit the wildtype Wnt pathway, a cellular reporter assay was employed. The corresponding assay cell was generated by transfection of the mammalian cell line HEK293 (ATCC, #CRL-1573) with the Super TopFlash vector (Morin, Science 275, 1997, 1787-1790; Molenaar et al., Cell 86 (3), 1996, 391-399). The HEK293 cell line is cultivated at 37° C. and 5% CO2 in DMEM (Life Technologies, #41965-039), supplemented with 2 mM glutamine, 20 mM HEPES, 1.4 mM pyruvate, 0.15% Na-bicarbonate and 10% foetal bovine serum (GIBCO, #10270). Stable transfectants were generated by selection with 300 μg/ml Hygromycin.
(§2) In preparation of the assay, the two cell lines were plated 24 hours before beginning the test at 10000 cells per well in a 384 micro titre plate (MTP) in […] growth medium. […] The recombinant human Wnt-3a was thereby applied between 2500 and 5 ng/ml in two-fold dilution steps. Selective inhibitory activity for small molecules on the wildtype Wnt pathway was determined after parallel incubation of both (TOP and FOP) HEK293 reporter cell lines with a compound dilution series from 50 μM to 15 nM in steps of 3.16-fold dilutions in CAFTY buffer (130 mM NaCl, 5 mM KCl, 20 mM HEPES, 1 mM MgCl2, 5 mM NaHCO3, pH 7.4) containing 2 mM Ca^2+ and 0.01% BSA.
(§3) The compounds were thereby serially prediluted in 100% DMSO and thereafter 50 fold into the CAFTY compound dilution buffer (described above).

The subject of experiment [3] is HEK293 FOP control reporter cell line. The experiment is described as follows: HEK293 FOP control vector reporter assay. The note with it: Homo sapiens; HEK293 FOP control reporter cells, EC50 concentration of recombinant Wnt-3a, 16 hours incubation; read-out: HEK FOP IC50. On the procedure: as §1
In a parallel approach, HEK293 cells were cotransfected with the FOP control vector and pcDNA3. The FOP vector is identical to the TOP construct, but it contains instead of functional TCF elements a randomized, non-functional sequence. For this transfection a stable transfected cell line was generated as well, based on selection with Geneticin (1 mg/ml).
as §2, §3
(A reporter such as luciferase makes a cellular process visible.)

Some results are limits rather than exact numbers.

Turning to `C[C@H](C(=O)Nc1cc(C(=O)Nc2ccc(-c3ccccc3)cc2)ccc1C(F)(F)F)N1CCOCC1` [Example 16, N-(biphenyl-4-yl)-3-{[(2R)-2-(morpholin-4-yl)propanoyl]amino}-4-(trifluoromethyl)benzamide], the IC50 was 0.0179 µM in experiment [1], at least 50 µM in experiment [2], 0.026 µM in the experiment with wildtype Wnt pathway and 7.9 µM in experiment [3].
For `CC(C)(C(=O)Nc1cc(C(=O)Nc2ccc(-c3ccccc3)cc2)ccc1C(F)(F)F)N1CCOCC1` [Example 17, N-(biphenyl-4-yl)-3-{[2-methyl-2-(morpholin-4-yl)propanoyl]amino}-4-(trifluoromethyl)benzamide] the same measures were 0.24 µM, at least 50 µM, 0.29 µM and 33 µM.
On the same counts, the results for `N#Cc1ccc(C(=O)Nc2ccc(-c3ccccc3)cc2)cc1NC(=O)CN1CCOCC1` [Example 18, N-(biphenyl-4-yl)-4-cyano-3-[(morpholin-4-ylacetyl)amino]benzamide] are 0.0587 µM, at least 50 µM, 0.69 µM and 19 µM.
With `O=C(CN1CCOCC1)Nc1cc(C(=O)Nc2ccc(-c3ccccc3)cc2)ccc1-c1ccco1` [Example 20, N-(biphenyl-4-yl)-4-(2-furyl)-3-[(morpholin-4-ylacetyl)amino]benzamide], the IC50 in experiment [1] is 0.0625 µM; in experiment [2], at least 50 µM; in the experiment on wildtype Wnt pathway it was 0.12 µM; in experiment [3], at least 50 µM.
For the compound `CNC(=O)c1ccc(C(=O)Nc2ccc(-c3ccccc3)cc2)cc1NC(=O)CN1CCOCC1` [Example 22, N^4-(biphenyl-4-yl)-N^1-methyl-2-[(morpholin-4-ylacetyl)amino]terephthalamide], the IC50 in experiment [1] is 0.0552 µM; in experiment [2], at least 50 µM; in the experiment on wildtype Wnt pathway, 0.077 µM; in experiment [3] it was at least 50 µM.
Consider `O=C(CN1CCOCC1)Nc1cc(C(=O)Nc2ccc(-c3ccccc3)cc2)ccc1OC(F)(F)F` [Example 23, N-(biphenyl-4-yl)-3-[(morpholin-4-ylacetyl)amino]-4-(trifluoromethoxy)benzamide], for which the IC50 is 0.032 µM in experiment [1], at least 50 µM in experiment [2], 0.038 µM in the experiment with wildtype Wnt pathway and at least 50 µM in experiment [3].
On to `CC(C)Oc1ccc(C(=O)Nc2ccc(-c3ccccc3)cc2)cc1NC(=O)CN1CCOCC1` [Example 25, N-(biphenyl-4-yl)-4-isopropoxy-3-[(morpholin-4-ylacetyl)amino]benzamide], for which the half-inhibitory concentration (IC50) is 0.0437 µM in experiment [1], at least 50 µM in experiment [2], 0.12 µM in the experiment with wildtype Wnt pathway and at least 50 µM in experiment [3].
Take `CCOc1ccc(C(=O)Nc2ccc(-c3ccccc3)cc2)cc1NC(=O)CN1CCOCC1` [Example 26, N-(biphenyl-4-yl)-4-ethoxy-3-[(morpholin-4-ylacetyl)amino]benzamide]: the IC50 in experiment [1] was 0.0637 µM; in experiment [2], at least 50 µM; in the experiment on wildtype Wnt pathway, 0.97 µM; in experiment [3], at least 50 µM.
With `COc1ccc(NC(=O)c2ccc(-c3ccccc3)cc2)cc1NC(=O)Cn1cccn1` [Example 27, N-{4-methoxy-3-[(1H-pyrazol-1-ylacetyl)amino]phenyl}biphenyl-4-carboxamide], the IC50 in experiment [1] stood at 1.2 µM; in experiment [2] it was 23 µM; in the experiment with wildtype Wnt pathway, 0.7 µM; in experiment [3] it was 9.3 µM.
For `COc1ccc(NC(=O)c2ccc(-c3ccccc3)cc2)cc1NC(=O)C(C)(C)N1CCOCC1` [Example 28, N-(4-methoxy-3-{[2-methyl-2-(morpholin-4-yl)propanoyl]amino}phenyl)biphenyl-4-carboxamide] the same measures were 1.79 µM, at least 50 µM, 2.4 µM and at least 50 µM.
